Reference: PubChem BioAssay (NCI)
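In this assay, cells in 96-well plates receive the compound at five concentrations for 48 hours. Endpoints are linearly interpolated between the surrounding concentrations. GI50: concentration for 50% inhibition of growth. TGI denotes the concentration required for complete inhibition of growth.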

Columns and labels:
Assay in all cases: DTP human tumour cell line panel, 48 h
A549 NSCLC = test system: A549 NSCLC
HCT-116 colon = test system: HCT-116 colon
IGROV1 ovarian = test system: IGROV1 ovarian
HT29 colon = test system: HT29 colon
NCI-H226 lung = test system: NCI-H226 lung
UACC-62 melanoma = test system: UACC-62 melanoma
OVCAR-3 ovarian = test system: OVCAR-3 ovarian
SR leukemia = test system: SR leukemia
OVCAR-4 ovarian = test system: OVCAR-4 ovarian
MALME-3M melanoma = test system: MALME-3M melanoma

Row | Compound | TGI (A549 NSCLC) | TGI (HCT-116 colon) | TGI (IGROV1 ovarian) | TGI (HT29 colon) | TGI (NCI-H226 lung) | TGI (UACC-62 melanoma) | TGI (OVCAR-3 ovarian) | TGI (SR leukemia) | TGI (OVCAR-4 ovarian) | TGI (MALME-3M melanoma) | GI50 (A549 NSCLC) | GI50 (HCT-116 colon) | GI50 (IGROV1 ovarian) | GI50 (HT29 colon) | GI50 (NCI-H226 lung) | GI50 (OVCAR-3 ovarian) | GI50 (SR leukemia) | GI50 (OVCAR-4 ovarian) | GI50 (MALME-3M melanoma) | GI50 (UACC-62 melanoma)
1 | COc1cc([C@H]2OC[C@H]3[C@@H]2CO[C@@H]3c2cc(OC)c3c(c2)OCO3)cc(OC)c1OC | > 100 µM | > 100 µM | > 100 µM | > 100 µM | > 100 µM | > 100 µM | > 100 µM | > 100 µM | > 100 µM | – | – | – | – | – | – | – | – | – | – | –
2 | [N-]=[N+]=NC(CI)c1cn([C@H]2C[C@H](O)[C@@H](CO)O2)c(=O)[nH]c1=O (stereo not given in full) | > 100 µM | > 100 µM | > 100 µM | > 100 µM | > 100 µM | > 100 µM | > 100 µM | > 100 µM | – | > 100 µM | – | – | – | – | – | – | – | – | – | –
3 | C[CH2][Sn]([CH2]C)([O]C(=O)C(OC(C)=O)c1ccccc1)[O]C(=O)C(OC(C)=O)c1ccccc1 (stereo not given) | > 100 µM | > 100 µM | > 100 µM | > 100 µM | 92.7 µM | – | > 100 µM | > 100 µM | > 100 µM | 33.5 µM | > 100 µM | 92.6 µM | > 100 µM | 46.7 µM | 29 µM | > 100 µM | 24.3 µM | 50 µM | 18.4 µM | –
4 | CCN(CC)Cc1ccc(Nc2nccc(-c3cnn4ncccc34)n2)cc1 | > 25 µM | > 25 µM | > 20.8 µM | 0.0984 µM | – | 0.0694 µM | 0.106 µM | – | 9.99 µM | 0.11 µM | 0.0163 µM | 0.00984 µM | 0.0275 µM | 0.0121 µM | – | 0.0115 µM | 0.00795 µM | 0.0766 µM | 0.033 µM | 0.0188 µM
5 | O=c1c2ccccc2nc(-c2ccccc2)n1NC1OC(CO)C(O)C(O)C1O (stereo not given) | > 100 µM | > 100 µM | > 100 µM | > 100 µM | > 100 µM | > 100 µM | > 100 µM | – | > 100 µM | > 100 µM | – | – | – | – | – | – | – | – | – | –
6 | Clc1nc(Cl)c2ncn(C/C=C/COc3cccc(OC/C=C/Cn4cnc5c(Cl)nc(Cl)nc54)c3)c2n1 | > 100 µM | – | > 100 µM | > 100 µM | > 100 µM | > 100 µM | > 100 µM | – | > 100 µM | > 100 µM | > 100 µM | – | > 100 µM | > 100 µM | > 100 µM | 95 µM | – | 36.3 µM | > 100 µM | > 100 µM
7 | C1=C2/CC[C@H](Sc3ccccc3)[C@H]2C2(CCCCC/1)OCCO2 | > 100 µM | > 100 µM | > 100 µM | > 100 µM | – | 62.4 µM | 81.7 µM | > 100 µM | – | 73.8 µM | – | – | – | – | – | – | – | – | – | –
8 | CCOC(=O)NC(=O)c1cn(CCCCCCOC(=O)NCCCCCCNC(=O)OCCCCCCn2cc(C(=O)NC(=O)OCC)c(=O)[nH]c2=O)c(=O)[nH]c1=O | > 100 µM | > 100 µM | > 100 µM | > 100 µM | > 100 µM | > 100 µM | > 100 µM | – | > 100 µM | > 100 µM | – | – | – | – | – | – | – | – | – | –
9 | O=CN/C=C/c1ccc(O)c(O)c1 | > 100 µM | > 100 µM | > 100 µM | > 100 µM | > 100 µM | > 100 µM | > 100 µM | – | > 100 µM | > 100 µM | – | – | – | – | – | – | – | – | – | –
10 | CCOC(=O)NC(=O)c1cn(CCN2CCN(c3ncnc4nc[nH]c34)CC2)c(=O)[nH]c1=O | > 100 µM | > 100 µM | > 100 µM | > 100 µM | > 100 µM | > 100 µM | > 100 µM | > 100 µM | – | > 100 µM | – | – | – | – | – | – | – | – | – | –
11 | Cc1ccc(N2C(=O)C3C=CC(n4[nH]c(=O)n(Cc5ccccc5)c4=O)CC3C2=O)cc1 (stereo not given) | > 100 µM | > 100 µM | > 100 µM | > 100 µM | > 100 µM | > 100 µM | > 100 µM | > 100 µM | – | > 100 µM | – | – | – | – | – | – | – | – | – | –
12 | O=C1c2ccccc2-c2c1c1ccccc1c(=O)n2CCN1CCOCC1 | > 100 µM | > 100 µM | > 100 µM | > 100 µM | > 100 µM | > 100 µM | > 100 µM | – | > 100 µM | > 100 µM | 64.8 µM | 36 µM | 79.4 µM | 57.8 µM | 73.9 µM | 82.2 µM | – | > 100 µM | > 100 µM | 29.4 µM
13 | C[C@]12CCC3[C@@H](CC[C@@H]4c5nonc5CC[C@]34C)C1C/C(=N/O)C2=O (stereo not given in full) | > 100 µM | > 100 µM | > 100 µM | > 100 µM | > 100 µM | > 100 µM | > 100 µM | – | > 100 µM | > 100 µM | – | – | – | – | – | – | – | – | – | –
14 | COc1ccc2ccccc2c1C1OC(=O)c2ccccc21 (stereo not given) | > 100 µM | – | > 100 µM | > 100 µM | > 100 µM | > 100 µM | > 100 µM | – | > 100 µM | > 100 µM | – | – | – | – | – | – | – | – | – | –
15 | C/C(CC(=O)Nc1ccc(Cl)cc1)=N\NC(N)=S | > 100 µM | > 100 µM | > 100 µM | > 100 µM | – | > 100 µM | > 100 µM | – | – | > 100 µM | – | – | – | – | – | – | – | – | – | –
16 | COc1ccc(/C=N/N=C(\N)NO)c(OC)c1 | > 100 µM | > 100 µM | > 100 µM | – | > 100 µM | > 100 µM | > 100 µM | – | > 100 µM | > 100 µM | – | – | – | – | – | – | – | – | – | –
17 | CN1c2ccccc2N(C)C23N(C)c4ccccc4N(C)C12N(C)c1ccccc1N3C (stereo not given) | > 100 µM | > 100 µM | > 100 µM | > 100 µM | > 100 µM | > 100 µM | > 100 µM | – | – | > 100 µM | – | – | – | – | – | – | – | – | – | –
18 | COC(=O)c1cc(Cl)ccc1NC(=O)c1ccc([N+](=O)[O-])cc1 | 58.2 µM | 17.9 µM | 57.8 µM | 35.1 µM | 42.5 µM | 66.5 µM | 31.4 µM | – | 12.3 µM | 90.6 µM | – | – | – | – | – | – | – | – | – | –
19 | O=C(Nc1ccc(Cl)c(Cl)c1)O/N=C\c1c(Cl)ccc([N+](=O)[O-])c1Cl | 10.3 µM | 3.25 µM | 4.57 µM | 3.53 µM | 12.4 µM | – | 2.76 µM | 5.04 µM | 3.14 µM | – | 2.96 µM | 1.49 µM | 2.08 µM | 1.91 µM | 3.06 µM | 1.31 µM | 0.878 µM | 1.74 µM | – | –
